Test results as given in PMC11751314, “Engineering of acyl ligase domain in non-ribosomal peptide synthetases to change fatty acid moieties of lipopeptides” (Communications Chemistry, 2025).

Experiments:
[1] = molecular target: T1, ItuAL_WT-MycACP (ituAL-ACP1) (Bacillus subtilis, UniProt Q93I56); experiment: HPLC of fatty acyl-AMP formed ([…] nm); assay type: biochemical; conditions: 1 mM fatty acid, 1 mM ATP, 50 mM MgCl2, 50 mM HEPES pH 7.5, 0.01% Brij35, 30% DMSO, 30 °C, 30 min; 10 μM enzyme, apo-ACP
T1 construct: gene ituA; N-terminally His-tagged fusion of ItuAL (584 aa, RB14) with adjacent MycACP (ATCC6633); pET28a, E. coli BL21-AI; ACP in apo-form; catalytic pocket lies wholly in ItuAL; with Mycosubtilin synthase subunit A, first acyl carrier protein domain
T1 sequence (Q93I56 1-584): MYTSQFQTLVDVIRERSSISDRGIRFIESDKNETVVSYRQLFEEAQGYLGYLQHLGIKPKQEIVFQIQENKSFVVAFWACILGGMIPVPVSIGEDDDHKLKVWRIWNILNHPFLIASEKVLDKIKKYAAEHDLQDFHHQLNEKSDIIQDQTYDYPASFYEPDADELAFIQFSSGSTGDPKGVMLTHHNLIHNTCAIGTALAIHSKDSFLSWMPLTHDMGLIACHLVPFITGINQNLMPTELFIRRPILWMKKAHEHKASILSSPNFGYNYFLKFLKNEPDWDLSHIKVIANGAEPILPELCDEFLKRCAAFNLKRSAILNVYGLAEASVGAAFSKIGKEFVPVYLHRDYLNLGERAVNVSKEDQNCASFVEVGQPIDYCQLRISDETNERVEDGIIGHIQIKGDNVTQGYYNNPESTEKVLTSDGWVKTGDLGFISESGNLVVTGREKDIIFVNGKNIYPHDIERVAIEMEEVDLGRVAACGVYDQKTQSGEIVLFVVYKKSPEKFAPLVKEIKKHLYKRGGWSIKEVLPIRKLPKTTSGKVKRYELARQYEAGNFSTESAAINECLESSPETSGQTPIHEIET
T1 sequence (Q9R9J1 586-668 partner limits assumed): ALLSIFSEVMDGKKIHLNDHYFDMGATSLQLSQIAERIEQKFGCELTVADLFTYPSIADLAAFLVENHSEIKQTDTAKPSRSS

(ituAL-ACP1) = molecular target: T2, (ituAL-ACP1) (Bacillus subtilis, UniProt Q93I56, F208G); experiment: HPLC of fatty acyl-AMP formed ([…] nm); assay type: biochemical; conditions: 1 mM fatty acid, 1 mM ATP, 50 mM MgCl2, 50 mM HEPES pH 7.5, 0.01% Brij35, 30% DMSO, 30 °C, 30 min; 10 μM enzyme, apo-ACP
T2 construct: gene ituA; N-terminally His-tagged fusion of ItuAL (584 aa, RB14) with adjacent MycACP (ATCC6633); pET28a, E. coli BL21-AI; ACP in apo-form; catalytic pocket lies wholly in ItuAL; with Mycosubtilin synthase subunit A, first acyl carrier protein domain
T2 sequence (Q93I56 entry or part of it F208G, one chain of several): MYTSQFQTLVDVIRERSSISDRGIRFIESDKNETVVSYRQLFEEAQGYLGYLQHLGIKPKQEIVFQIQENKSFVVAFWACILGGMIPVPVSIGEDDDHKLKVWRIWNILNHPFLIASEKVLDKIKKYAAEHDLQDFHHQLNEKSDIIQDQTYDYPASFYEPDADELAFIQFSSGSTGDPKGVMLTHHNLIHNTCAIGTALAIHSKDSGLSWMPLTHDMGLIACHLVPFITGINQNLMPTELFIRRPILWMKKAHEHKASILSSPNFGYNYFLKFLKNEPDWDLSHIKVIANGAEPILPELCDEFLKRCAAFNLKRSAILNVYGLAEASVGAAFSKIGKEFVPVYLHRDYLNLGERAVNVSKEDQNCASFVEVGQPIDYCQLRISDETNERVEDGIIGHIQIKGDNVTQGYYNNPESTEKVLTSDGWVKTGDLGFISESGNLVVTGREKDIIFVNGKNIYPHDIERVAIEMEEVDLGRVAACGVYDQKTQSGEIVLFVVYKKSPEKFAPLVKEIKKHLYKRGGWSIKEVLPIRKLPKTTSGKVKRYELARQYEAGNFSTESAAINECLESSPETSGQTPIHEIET

Row | Structure (SMILES) | relative activity (C10 = 100%) [1] | relative activity (C10 = 100%) ((ituAL-ACP1))
1 | CCCCCCCCCCCC(=O)O [C12, lauric acid] | ItuAL_WT exhibited the highest activity against lauric acid (C12) | –
2 | CCCCCCCCCCCCCCC(=O)O [C15, pentadecanoic acid] | – | ItuAL_F208G exhibited the highest activity against pentadecanoic acid (C15)
